Measured values taken from US20060252807A1, “Novel ortho-terphenyl inhibitors of p38 kinase and methods of treating inflammatory disorders” (Kalypsys, Inc., priority 2005, published 2006).
pIC50: −log10 of the molar value.

Biological target: T1, active p38 alpha enzyme (Upstate Biotechnology) (Homo sapiens, UniProt Q16539)
T1 construct: purchased Upstate Biotechnology
Experiment: p38α biochemical assay (ATP turnover, luminescent detection, Cambrex PKlight)
Settings: p38α biochemical assay, Table 1 Biological Activity
How it was run: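 Active p38α phosphorylates MapkapK2 whole protein with 1.4 uM final ATP, 2 h at 30C, in Tris/MOPS buffer with MgCl2, CaCl2, EGTA, EDTA, glycerol, β-mercaptoethanol and 1 mg/ml BSA. Compounds pin-delivered from DMSO; total ATP turnover read by luminescence after PKlight addition.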

T1 sequence (Q16539 whole entry): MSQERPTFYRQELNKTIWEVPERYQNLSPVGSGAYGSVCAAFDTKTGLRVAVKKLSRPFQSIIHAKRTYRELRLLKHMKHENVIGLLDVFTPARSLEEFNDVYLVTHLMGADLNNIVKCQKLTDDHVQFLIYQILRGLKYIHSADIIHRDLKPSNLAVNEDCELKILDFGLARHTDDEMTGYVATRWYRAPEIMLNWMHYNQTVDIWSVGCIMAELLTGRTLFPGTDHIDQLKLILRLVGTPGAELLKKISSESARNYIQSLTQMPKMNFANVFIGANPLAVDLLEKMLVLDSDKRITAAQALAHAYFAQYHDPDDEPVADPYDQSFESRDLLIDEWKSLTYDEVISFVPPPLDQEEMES

SMILES	pIC50
CC(C)NC(=O)c1csc(-c2oc(CN3CCN(C(=O)COc4ccccc4C=O)CC3)nc2-c2ccc(F)cc2)n1 [Example 449]	< 6.00
CC(C)NC(=O)c1csc(-c2oc(CN3CCN(C(=O)c4ccc(OCc5ccccc5)cc4)CC3)nc2-c2ccc(F)cc2)n1 [Example 545]	< 6.00
CC(C)NC(=O)c1csc(-c2c(-c3ccc(F)cc3)noc2CNC(=O)C(NC(=O)OC(C)(C)C)C(C)C)n1 (stereo not shown) [Example 773]	< 6.00
CC(C)NC(=O)c1csc(-c2oc(CNC(=O)C(Cc3ccccn3)NC(=O)OC(C)(C)C)nc2-c2ccc(F)cc2)n1 (stereo not shown) [Example 332]	< 6.00
COc1ccc(C(=O)NCc2onc(-c3ccc(F)cc3)c2-c2nc(C(=O)NC(C)C)cs2)c(OC)c1 [Example 700]	< 6.00
CCc1ccc(C(=O)N2CCN(Cc3nc(-c4ccc(F)cc4)c(-c4nc(C(=O)NC(C)C)cs4)o3)CC2)cc1 [Example 377]	< 6.00
C#CCNC(=O)c1csc(-c2c(-c3ccc(F)cc3)ncn2C)n1 [Example 87, 2-|5-(4-Fluoro-phenyl)-3-methyl-3H-imidazol-4-yl|-thiazole-4-carboxylic acid prop-2-ynylamide]	≥ 6.00
CC(C)NC(=O)c1csc(-c2oc(CN3CCN(C(=O)CCc4nc5ccccc5[nH]4)CC3)nc2-c2ccc(F)cc2)n1 [Example 487]	< 6.00
CC(C)NC(=O)c1csc(-c2oc(CN3CCN(C(=O)c4cscn4)CC3)nc2-c2ccc(F)cc2)n1 [Example 356]	≥ 6.00
Cc1ccccc1CCC(=O)NCc1nc(-c2ccc(F)cc2)c(-c2nc(C(=O)NC(C)C)cs2)o1 [Example 172]	< 6.00
CC(C)NC(=O)c1csc(-c2c(-c3ccc(F)cc3)noc2CNC(=O)c2cc(F)cc(F)c2)n1 [Example 635]	< 6.00
Cc1cccc(C(=O)NCc2nc(-c3ccc(F)cc3)c(-c3nc(C(=O)NC(C)C)cs3)o2)c1C [Example 136]	< 6.00
CC(C)NC(=O)c1csc(-c2oc(CN3CCN(C(=O)Cc4ccc(O)c(Cl)c4)CC3)nc2-c2ccc(F)cc2)n1 [Example 477]	< 6.00
CC(=O)Oc1ccc(C(=O)NCc2nc(-c3ccc(F)cc3)c(-c3nc(C(=O)NC(C)C)cs3)o2)cc1 [Example 213]	< 6.00

Same assay, conditions: p38α kinase; Table 1 Biological Activity

SMILES	pIC50
Cc1nc(-c2ccc(F)cc2)c(-c2nc(C(=O)Nc3cc(F)c(F)cc3F)cs2)s1 [Example 1995]	< 6.00
COCC(C)NC(=O)c1csc(-c2sc(C)nc2-c2ccc(F)cc2)n1 (stereo not shown) [Example 1727]	≥ 6.00
CC(C)NC(=O)c1csc(-c2c(-c3ccc(F)cc3)noc2CNC2CCCc3ccccc32)n1 (stereo not shown) [Example 1378]	< 6.00
CC(=O)c1ccc(NC(=O)c2csc(-c3sc(C)nc3-c3ccc(F)cc3)n2)cc1 [Example 1984]	< 6.00
Cc1nc(-c2ccc(F)cc2)c(-c2nc(C(=O)NCCCN(C)c3ccccc3)cs2)s1 [Example 1811]	≥ 6.00
Cc1nc(-c2ccc(F)cc2)c(-c2nc(C(=O)N3CCOCC3)cs2)s1 [Example 1841]	< 6.00
CCN(CC)C(=O)c1csc(-c2sc(C)nc2-c2ccc(F)cc2)n1 [Example 1837]	< 6.00
Cc1ccccc1CNCc1onc(-c2ccc(F)cc2)c1-c1nc(C(=O)NC(C)C)cs1 [Example 1431]	< 6.00
CCC(C)CNC(=O)c1csc(-c2sc(C)nc2-c2ccc(F)cc2)n1 (stereo not shown) [Example 1723]	< 6.00
CC(=O)Nc1ccc(NCc2onc(-c3ccc(F)cc3)c2-c2nc(C(=O)NC(C)C)cs2)cc1 [Example 1675]	< 6.00
CC(C)NC(=O)c1csc(-c2oc(CNC(C)CO)nc2-c2ccc(F)cc2)n1 (stereo not shown) [Example 1064]	≥ 6.00
Cc1c(Cl)cccc1NCc1nc(-c2ccc(F)cc2)c(-c2nc(C(=O)NC(C)C)cs2)o1 [Example 1344]	< 6.00
CC(C)NC(=O)c1csc(-c2c(-c3ccc(F)cc3)n[nH]c2C2CCN(C(=O)c3ccc(C#N)cc3)CC2)n1 [Example 2171, 2-|5-|1-(4-Cyano-benzoyl)-piperidin-4-yl|-3-(4-fluoro-phenyl)-1H-pyrazol-4-yl|-thiazole-4-carboxylic acid isopropylamide]	< 6.00
COc1cccc(O)c1C(=O)N1CCC(c2[nH]nc(-c3ccc(F)cc3)c2-c2nc(C(=O)NC(C)C)cs2)CC1 [Example 900]	< 6.00
Cc1ccc(CNCc2nc(-c3ccc(F)cc3)c(-c3nc(C(=O)NC(C)C)cs3)o2)cc1 [Example 1101]	< 6.00
Cc1nc(-c2ccc(F)cc2)c(-c2nc(C(=O)NCc3cc(F)cc(F)c3)cs2)s1 [Example 1791]	≥ 6.00
O=C(NCCc1ccc(O)cc1)c1csc(-c2c(-c3ccc(F)cc3)n[nH]c2C2CCNCC2)n1 [Example 2099]	< 6.00
COc1cc2c(cc1OC)CN(Cc1nc(-c3ccc(F)cc3)c(-c3nc(C(=O)NC(C)C)cs3)o1)CC2 [Example 1295]	< 6.00

SMILES	pIC50
C[C@@H](NC(=O)c1csc(-c2c(-c3ccc(F)cc3)n[nH]c2C2CCNCC2)n1)c1ccccc1 [Example 2075]	< 6.00
CC(C)NC(=O)c1csc(-c2oc(CNCCC(C)(C)C)nc2-c2ccc(F)cc2)n1 [Example 1079]	≥ 6.00
CC(C)NC(=O)c1csc(-c2c(-c3ccc(F)cc3)noc2CNC(CO)C(C)C)n1 (stereo not shown) [Example 1414]	< 6.00
Cc1nc(-c2ccc(F)cc2)c(-c2nc(C(=O)Nc3c(C(C)C)cccc3C(C)C)cs2)s1 [Example 2012]	< 6.00
CCN(Cc1onc(-c2ccc(F)cc2)c1-c1nc(C(=O)NC(C)C)cs1)C1CCCCC1 [Example 1543]	< 6.00
Cc1cccc(CNCc2onc(-c3ccc(F)cc3)c2-c2nc(C(=O)NC(C)C)cs2)c1 [Example 1427]	< 6.00
Cc1nc(-c2ccc(F)cc2)c(-c2nc(C(=O)NCc3ccc(F)c(Cl)c3)cs2)s1 [Example 1807]	≥ 6.00
Cc1nc(-c2ccc(F)cc2)c(-c2nc(C(=O)NCCN)cs2)s1 [Example 1711]	< 6.00
O=C(NCc1ccccc1Cl)c1csc(-c2c(-c3ccc(F)cc3)n[nH]c2C2CCNCC2)n1 [Example 2108]	< 6.00
CNC(=O)c1csc(-c2sc(C)nc2-c2ccc(F)cc2)n1 [Example 1705]	≥ 6.00
Cc1[nH]nc(-c2ccc(F)cc2)c1-c1nc(C(=O)NC(C)C)no1 [Example 2196, 5-|3-(4-Fluoro-phenyl)-5-methyl-1H-pyrazol-4-yl|-|1,2,4|oxadiazole-3-carboxylic acid isopropylamide]	< 6.00
CC(C)NC(=O)c1csc(-c2c(-c3ccc(F)cc3)noc2CNCc2ccc(C(C)C)cc2)n1 [Example 1471]	< 6.00
O=C(NCC(F)(F)F)c1csc(-c2c(-c3ccc(F)cc3)ncn2C2CCNCC2)n1 [Example 2185, 2-|5-(4-Fluoro-phenyl)-3-piperidin-4-yl-3H-imidazol-4-yl|-thiazole-4-carboxylic acid (2,2,2-trifluoro-ethyl)-amide]	≥ 6.00
COC(=O)C1CCN(Cc2onc(-c3ccc(F)cc3)c2-c2nc(C(=O)NC(C)C)cs2)CC1 [Example 1557]	< 6.00
CC(C)NC(=O)c1csc(-c2c(-c3ccc(F)cc3)n[nH]c2C2CCN(C(=O)c3cc(O)c(O)c(O)c3)CC2)n1 [Example 904]	≥ 6.00
CC(C)NC(=O)c1csc(-c2c(-c3ccc(F)cc3)n[nH]c2C2CCN(C(=O)c3cc(O)ccc3[N+](=O)[O-])CC2)n1 [Example 947]	≥ 6.00
CSc1ccccc1NCc1onc(-c2ccc(F)cc2)c1-c1nc(C(=O)NC(C)C)cs1 [Example 1666]	< 6.00
